# Measured values published in ChEMBL document CHEMBL1140610, “Matrix metalloproteinases (MMPs): chemical-biological functions and (Q)SARs” (Bioorg Med Chem, 2007).
# pIC50: −log10 of the molar value.
# Target: Matrix metalloproteinase-14 (Homo sapiens, UniProt P50281)
# Conditions: not given
row,SMILES,pIC50
1,CCOCCC1(Oc2ccc(Oc3ccc(C)cc3)cc2)C(=O)NC(=O)NC1=O,7.64
2,CCOCCC1(Oc2ccc(Oc3ccc(C#N)cc3)cc2)C(=O)NC(=O)NC1=O,6.70
3,CCOCCC1(Oc2ccc(Oc3cccc(Cl)c3)cc2)C(=O)NC(=O)NC1=O,6.92
4,CCOCCC1(Oc2ccc(Oc3ccccc3Cl)cc2)C(=O)NC(=O)NC1=O,6.29
5,CCOCCC1(Oc2ccc(Oc3ccc(C(F)(F)F)cc3)cc2)C(=O)NC(=O)NC1=O,6.82
6,CCOCCC1(Oc2ccc(Oc3ccc(C(N)=O)cc3)cc2)C(=O)NC(=O)NC1=O,6.21
7,CCOCCC1(Oc2ccc(Oc3ccc(S(C)(=O)=O)cc3)cc2)C(=O)NC(=O)NC1=O,5.06
8,CCOCCC1(Oc2ccc(Oc3ccc(OC)cc3)cc2)C(=O)NC(=O)NC1=O,6.66
9,CCOCCC1(Oc2ccc(Oc3ccccc3F)cc2)C(=O)NC(=O)NC1=O,7.80
10,CCOCCC1(Oc2ccc(Oc3ccc(C(=O)N(C)C)cc3)cc2)C(=O)NC(=O)NC1=O,5.03
11,CCOCCC1(Oc2ccc(Oc3ccc(C(=O)NC)cc3)cc2)C(=O)NC(=O)NC1=O,6.19
12,CCOCCC1(Oc2ccc(Oc3ccccc3C)cc2)C(=O)NC(=O)NC1=O,7.15
13,CCOCCC1(Oc2ccc(Oc3ccc(F)cc3)cc2)C(=O)NC(=O)NC1=O,7.64
14,CCOCCC1(Oc2ccc(Oc3ccc(Cl)cc3)cc2)C(=O)NC(=O)NC1=O,7.74
15,CCOCCC1(Oc2ccc(Oc3cccc(F)c3)cc2)C(=O)NC(=O)NC1=O,7.22
16,CCOCCC1(Oc2ccc(Oc3ccc(Br)cc3)cc2)C(=O)NC(=O)NC1=O,7.72
17,CCOCCC1(Oc2ccc(Oc3ccc(C(C)(C)C)cc3)cc2)C(=O)NC(=O)NC1=O,5.17
18,CCOCCC1(Oc2ccc(Oc3ccc(-c4ccccc4)cc3)cc2)C(=O)NC(=O)NC1=O,7.44
19,CCOCCC1(Oc2ccc(Oc3cccc(C)c3)cc2)C(=O)NC(=O)NC1=O,7.30

# Target: T1, Interstitial collagenase (Homo sapiens, UniProt P03956)
# T1 sequence (P03956 whole entry): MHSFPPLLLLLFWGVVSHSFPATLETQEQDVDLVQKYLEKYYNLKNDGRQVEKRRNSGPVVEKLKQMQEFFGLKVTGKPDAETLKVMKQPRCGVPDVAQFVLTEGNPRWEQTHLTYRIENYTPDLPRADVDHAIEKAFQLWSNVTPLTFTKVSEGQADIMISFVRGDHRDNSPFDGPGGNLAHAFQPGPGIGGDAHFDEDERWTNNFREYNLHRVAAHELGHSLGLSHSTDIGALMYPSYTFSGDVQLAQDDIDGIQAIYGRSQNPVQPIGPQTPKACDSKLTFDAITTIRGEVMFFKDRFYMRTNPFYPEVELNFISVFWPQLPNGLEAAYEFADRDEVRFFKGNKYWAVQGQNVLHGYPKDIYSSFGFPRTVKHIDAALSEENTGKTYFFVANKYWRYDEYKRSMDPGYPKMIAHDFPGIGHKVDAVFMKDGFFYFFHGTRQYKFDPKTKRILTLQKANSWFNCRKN
# Conditions: read-out: log(1/IC50) (converted)
row,SMILES,IC50
1,C[C@@]1(O)CCCN(S(=O)(=O)c2ccc(OC[n+]3ccncc3)cc2)C1C(=O)NO (some centres not stated),1580 nM
2,CNC(=O)[C@@H](Cc1ccc(OC)cc1)NC(=O)C(CC(C)C)CP(=O)(O)Cc1ccc(S(=O)(=O)c2ccccc2)cc1 (some centres not stated),1700 nM
3,C[C@@]1(O)CCCN(S(=O)(=O)c2ccc(OCc3cncc4ccccc34)cc2)C1C(=O)NO (some centres not stated),7760 nM
4,CCCC(CP(=O)(O)Cc1ccc(Cc2ccccc2)cc1)C(=O)N[C@H](C(=O)NC)C(C)(C)C (some centres not stated),339 nM
5,Cc1c(F)cccc1COc1ccc(S(=O)(=O)N2CCC[C@@](C)(O)C2C(=O)NO)cc1 (some centres not stated),1290 nM
6,CNC(=O)[C@@H](Cc1ccc(OC)cc1)NC(=O)C(CC(C)C)CP(=O)(O)Cc1cccc(-c2ccccc2)c1 (some centres not stated),5130 nM
7,C[C@@]1(O)CCCN(S(=O)(=O)c2ccc(OCc3ccc(F)cc3)cc2)C1C(=O)NO (some centres not stated),417 nM
8,CC(C(=O)NO)N(Cc1ccc([N+](=O)[O-])cc1)S(=O)(=O)c1c(F)c(F)c(F)c(F)c1F (configuration not stated),3.98 nM
9,CC(N)P(=O)(O)CC(COCc1ccccc1)C(=O)NC(Cc1c[nH]c2ccccc12)C(N)=O (configuration not stated),251 nM
10,CNC(=O)[C@@H](Cc1ccc(OC)cc1)NC(=O)C(CC(C)C)CP(=O)(O)Cc1ccc(Oc2ccccc2)cc1 (some centres not stated),2820 nM
11,CC(N)P(=O)(O)CC(CCc1ccccc1)C(=O)NC(Cc1c[nH]c2ccccc12)C(N)=O (configuration not stated),79.4 nM
12,C[C@@]1(O)CCCN(S(=O)(=O)c2ccc(OCc3ccnc(Cl)c3)cc2)C1C(=O)NO (some centres not stated),525 nM
13,Cc1ccccc1COc1ccc(S(=O)(=O)N2CCC[C@@](C)(O)C2C(=O)NO)cc1 (some centres not stated),309 nM
14,CC(N)P(=O)(O)CC(CSCc1ccccc1)C(=O)NC(Cc1c[nH]c2ccccc12)C(N)=O (configuration not stated),14.1 nM
15,CNC(=O)[C@@H](Cc1ccc(OC)cc1)NC(=O)C(CC(C)C)CP(=O)(O)Cc1ccccc1 (some centres not stated),15100 nM
16,CNC(=O)[C@@H](Cc1ccc(OC)cc1)NC(=O)C(CC(C)C)CP(=O)(O)Cc1ccc(CC2CCCCC2)cc1 (some centres not stated),1910 nM
17,CNC(=O)[C@@H](NC(=O)C(CC(C)C)CP(=O)(O)Cc1ccc(Cc2ccccc2)cc1)C(C)(C)C (some centres not stated),60.3 nM
18,CNC(=O)[C@@H](Cc1ccc(OC)cc1)NC(=O)C(CC(C)C)CP(=O)(O)Cc1ccc(CC(C)C)cc1 (some centres not stated),4470 nM
19,CNC(=O)[C@@H](NC(=O)C(CCC1CCCCC1)CP(=O)(O)Cc1ccc(Cc2ccccc2)cc1)C(C)(C)C (some centres not stated),19100 nM
20,C[C@@]1(O)CCCN(S(=O)(=O)c2ccc(OCc3ccncc3)cc2)C1C(=O)NO (some centres not stated),191 nM
21,C[C@@]1(O)CCCN(S(=O)(=O)c2ccc(OCc3ccc(F)cc3Cl)cc2)C1C(=O)NO (some centres not stated),309 nM
22,O=C(CN(Cc1ccc([N+](=O)[O-])cc1)S(=O)(=O)c1c(F)c(F)c(F)c(F)c1F)NO,3.02 nM

row,SMILES,IC50
1,CNC(=O)[C@@H](NC(=O)C(CC1CC1)CP(=O)(O)Cc1ccc(Cc2ccccc2)cc1)C(C)(C)C (some centres not stated),200 nM
2,CC(N)P(=O)(O)CC(CCCc1ccccc1)C(=O)NC(Cc1c[nH]c2ccccc12)C(N)=O (configuration not stated),30.9 nM
3,CNC(=O)[C@@H](Cc1ccc(OC)cc1)NC(=O)C(CC(C)C)CP(=O)(O)Cc1ccc(-c2ccccc2)cc1 (some centres not stated),2190 nM
4,CC(C)CC(C(=O)NO)N(Cc1ccccc1)S(=O)(=O)c1c(F)c(F)c(F)c(F)c1F (configuration not stated),6.03 nM
5,CNC(=O)[C@@H](NC(=O)C(CC1CCC1)CP(=O)(O)Cc1ccc(Cc2ccccc2)cc1)C(C)(C)C (some centres not stated),178 nM
6,CC(N)P(=O)(O)CC(Cc1ccccc1)C(=O)NC(Cc1c[nH]c2ccccc12)C(N)=O (configuration not stated),251 nM
7,Cc1ncccc1COc1ccc(S(=O)(=O)N2CCC[C@@](C)(O)C2C(=O)NO)cc1 (some centres not stated),1580 nM
8,CNC(=O)[C@@H](NC(=O)C(CC1CCCCC1)CP(=O)(O)Cc1ccc(Cc2ccccc2)cc1)C(C)(C)C (some centres not stated),1820 nM
9,C[C@@]1(O)CCCN(S(=O)(=O)c2ccc(OCc3ccc(Cl)cc3F)cc2)C1C(=O)NO (some centres not stated),120 nM
10,CNC(=O)[C@@H](NC(=O)C(CCC(F)(F)F)CP(=O)(O)Cc1ccc(Cc2ccccc2)cc1)C(C)(C)C (some centres not stated),44.7 nM
11,COc1ccccc1COc1ccc(S(=O)(=O)N2CCC[C@@](C)(O)C2C(=O)NO)cc1 (some centres not stated),2570 nM
12,C[C@@]1(O)CCCN(S(=O)(=O)c2ccc(OCc3ccccc3F)cc2)C1C(=O)NO (some centres not stated),182 nM
13,CNC(=O)[C@@H](NC(=O)C(CCC(C)C)CP(=O)(O)Cc1ccc(Cc2ccccc2)cc1)C(C)(C)C (some centres not stated),3470 nM
14,C[C@@]1(O)CCCN(S(=O)(=O)c2ccc(OCc3cccc(F)c3)cc2)C1C(=O)NO (some centres not stated),339 nM
15,CNC(=O)[C@@H](NC(=O)C(CCc1ccccc1)CP(=O)(O)Cc1ccc(Cc2ccccc2)cc1)C(C)(C)C (some centres not stated),692 nM
16,C[C@@]1(O)CCCN(S(=O)(=O)c2ccc(OCc3ccnc4ccccc34)cc2)C1C(=O)NO (some centres not stated),120 nM
17,CNC(=O)[C@@H](Cc1ccc(OC)cc1)NC(=O)C(CC(C)C)CP(=O)(O)Cc1ccccc1-c1ccccc1 (some centres not stated),11000 nM
18,C[C@@]1(O)CCCN(S(=O)(=O)c2ccc(OCc3cccc(Cl)c3)cc2)C1C(=O)NO (some centres not stated),851 nM
19,CNC(=O)[C@@H](Cc1ccc(OC)cc1)NC(=O)C(CC(C)C)CP(=O)(O)Cc1ccc(Cc2ccccc2)cc1 (some centres not stated),269 nM
20,C[C@@]1(O)CCCN(S(=O)(=O)c2ccc(OCc3ccccc3C#N)cc2)C1C(=O)NO (some centres not stated),2690 nM
21,CNC(=O)[C@@H](Cc1ccc(OC)cc1)NC(=O)C(CC(C)C)CP(=O)(O)Cc1cccc(CCc2ccccc2)c1 (some centres not stated),7410 nM

# Target: T2, Matrilysin (Homo sapiens, UniProt P09237)
# T2 sequence (P09237 whole entry): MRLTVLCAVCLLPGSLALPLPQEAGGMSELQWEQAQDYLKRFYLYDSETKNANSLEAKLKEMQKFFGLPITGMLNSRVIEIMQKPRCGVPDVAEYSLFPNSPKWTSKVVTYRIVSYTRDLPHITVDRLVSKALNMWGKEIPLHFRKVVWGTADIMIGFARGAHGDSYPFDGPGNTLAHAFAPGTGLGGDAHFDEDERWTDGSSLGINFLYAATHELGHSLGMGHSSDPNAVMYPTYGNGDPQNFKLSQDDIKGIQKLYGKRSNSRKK
# Conditions: read-out: log(1/IC50) (converted)
row,SMILES,IC50
1,CCCCOc1ccc(S(=O)(=O)N2CC(N3C(=O)CN(CCC)C3=O)C[C@@H]2C(=O)NO)cc1 (some centres not stated),1200 nM
2,C=CCN1CC(=O)N(C2C[C@H](C(=O)NO)N(S(=O)(=O)c3ccc(OCCCC)cc3)C2)C1=O (some centres not stated),1000 nM
3,CCCCOc1ccc(S(=O)(=O)N2CC(N3C(=O)NC(SC)C3=O)C[C@@H]2C(=O)NO)cc1 (some centres not stated),851 nM
4,C=CCN1CC(=O)N(C2C[C@H](C(=O)NO)N(S(=O)(=O)c3ccc(OCCOC)cc3)C2)C1=O (some centres not stated),11000 nM
5,CC(C)COc1ccc(S(=O)(=O)N2CC(N3C(=O)CN(C)C3=O)C[C@@H]2C(=O)NO)cc1 (some centres not stated),2290 nM
6,CCCOc1ccc(S(=O)(=O)N2CC(N3C(=O)CN(C)C3=O)C[C@@H]2C(=O)NO)cc1 (some centres not stated),2570 nM
7,CCOc1ccc(S(=O)(=O)N2CC(N3C(=O)CN(C)C3=O)C[C@@H]2C(=O)NO)cc1 (some centres not stated),7590 nM
8,CN1CC(=O)N(C2C[C@H](C(=O)NO)N(S(=O)(=O)c3ccc(Oc4ccncc4)cc3)C2)C1=O (some centres not stated),7410 nM
9,COc1ccc(S(=O)(=O)N2CC(N3C(=O)CN(C)C3=O)C[C@@H]2C(=O)NO)cc1 (some centres not stated),1820 nM
10,CN1CC(=O)N(C2C[C@H](C(=O)NO)N(S(=O)(=O)c3ccc(Oc4ccccc4)cc3)C2)C1=O (some centres not stated),309 nM
11,COCCOc1ccc(S(=O)(=O)N2CC(N3C(=O)CN(C)C3=O)C[C@@H]2C(=O)NO)cc1 (some centres not stated),9120 nM
12,CCCN1CC(=O)N(C2C[C@H](C(=O)NO)N(S(=O)(=O)c3ccc(OCCOC)cc3)C2)C1=O (some centres not stated),11000 nM
13,CCCCOc1ccc(S(=O)(=O)N2CC(N3C(=O)CN(C)C3=O)C[C@@H]2C(=O)NO)cc1 (some centres not stated),1580 nM
14,C=CCN1CC(=O)N(C2C[C@H](C(=O)NO)N(S(=O)(=O)c3ccc(OCCC)cc3)C2)C1=O (some centres not stated),2570 nM
15,CCCCOc1ccc(S(=O)(=O)N2CC(N3C(=O)NC(C)(C)C3=O)C[C@@H]2C(=O)NO)cc1 (some centres not stated),447 nM
